{"source": "patent US8658619B2", "about": "“Methods of treating subclinical sun damage” (priority 2010, dated 2014)", "test_system": "subclinical sun damage", "test": "Follow-up treatments of one patient on a substantially annual basis", "format": "in vivo, human", "conditions": "each time after the first treatment", "text": "In order to assess the scope of original treatment, one patient received further treatments over a substantially annual basis. In Table 4, treatment #, days since last treatment, and observations are provided. […] From this, it was concluded that all of the subclinical sun damage treated most likely resolved during each cycle of therapy. Subsequent milder reactions appear to have treated new subclinical sun damage or possible recurrent sun damage. […] The freckle also resolved itself after follow-up treatment #1. During follow-up treatment #2, FIG. 4C, there was no sign of the freckle. That is, where there may not have been a response during an earlier treatment, a subsequent treatment invoked a response. Moreover, responses to successive treatments, if any, were not as severe as the initial response. […] It is also concluded that annual treatment aids in preventing actinic keratoses from forming as well as eliminates any new sun damage.", "data": [{"smiles": "O=c1[nH]cc(F)c(=O)[nH]1", "note": "[5-FU, 5-fluorouracil]", "values": [{"measurement": "response in follow-up treatments", "result": "mild erythema"}]}]}
